Data published in publication PMC6131501, “Urate transporter inhibitor lesinurad is a selective peroxisome proliferator-activated receptor gamma modulator (sPPARγM) in vitro” (Scientific Reports, 2018).
“Also recorded” adds a separate entry of the source.

Columns and labels:
3T3-L1 adipocytes = test: Differentiation of 3T3-L1 adipocytes, Oil Red O staining; assay type: cell-based, murine; conditions: rosiglitazone 2 μM; lesinurad up to 50 μM
Procedure: For this, 3T3-L1 cells were treated with insulin, dexamethasone and isobutylmethylxanthine (IBMX) to induce their differentiation into mature adipocytes. […] 3T3-L1 cells were subcultured in DMEM containing 10% newborn calf serum in a humidified atmosphere at 37 °C, 5% CO2. Cells were differentiated into adipocytes within 14 days according to the method[54] reported by Zebisch and colleagues. In brief, cells were seeded in 6-well plates ([…]). […] At day 5, medium was changed to contain only insulin for another two days. Cells were then kept for lipid droplet accumulation in basal medium without additions until day 15. […] Differentiation of 3T3-L1 cells to adipocytes was confirmed by Oil Red O staining. For this, cells were washed with PBS and then fixed for 60 min with a formaldehyde solution (4% in PBS). Subsequently, cells were rinsed with 60% isopropanol and incubated with Oil Red O solution (0.3%) for 120 min.

PPARγ LBD / SRC-1 = PPARγ LBD / SRC-1 (Homo sapiens, UniProt P37231); test: PPARγ coactivator recruitment assay (time-resolved FRET), SRC-1; assay type: biochemical
Sequence of PPARγ LBD / SRC-1 (P37231 238-503 limits assumed): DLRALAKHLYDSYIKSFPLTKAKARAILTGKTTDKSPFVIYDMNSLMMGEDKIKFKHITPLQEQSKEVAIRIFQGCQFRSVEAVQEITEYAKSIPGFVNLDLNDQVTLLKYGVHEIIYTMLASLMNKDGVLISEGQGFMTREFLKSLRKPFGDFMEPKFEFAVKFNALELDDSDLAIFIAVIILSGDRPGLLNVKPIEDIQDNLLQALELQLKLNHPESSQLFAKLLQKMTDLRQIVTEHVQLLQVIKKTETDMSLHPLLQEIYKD
Sequence of PPARγ LBD / SRC-1 (Q15788 676-700 partner limits assumed): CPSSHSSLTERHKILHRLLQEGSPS
Description: We analyzed the ability of lesinurad to induce recruitment of the coactivators steroid receptor coactivator 1 (SRC-1, also known as nuclear receptor coactivator 1 (NCOA1)) and cyclic AMP responsive element binding (CREB) protein (CBP) to the PPARγ ligand binding domain in a time-resolved FRET assay with labeled PPARγ-LBD and coactivator proteins (Fig. 5D).
Recruitment of coactivator-derived peptides to the PPARγ LBD was studied by homogeneous time-resolved fluorescence resonance energy transfer (HT-FRET or HTRF). Terbium cryptate as streptavidin conjugate (cisbio assays, France) was used as FRET donor. Peptides derived from coactivators SRC-1 [biotin-[…]] or CBP [biotin-[…]] encompassing the coactivator consensus motif LxxLL and N-terminal biotin for stable coupling to streptavidin were purchased (Eurogentec GmbH, Germany). […] FI520 nm was divided by FI620 nm and multiplied with 10,000 giving a dimensionless HTRF signal. Coactivator recruitment by the PPARγ LBD brings FRET donor and acceptor into close proximity resulting in a gain in FRET signal as signal for binding.

3T3-L1 cells = test: Cytotoxicity in adipocyte differentiation experiment; assay type: cell-based, murine; conditions: up to 50 μM (data not shown)
Procedure: For this, 3T3-L1 cells were treated with insulin, dexamethasone and isobutylmethylxanthine (IBMX) to induce their differentiation into mature adipocytes.

CYP3A4 = test system: CYP3A4; set-up: method as in PMID 28067999; conditions: cited from earlier work
PPARγ = test system: PPARγ; set-up: method as in PMID 27716403; conditions: up to 100 μM; non-human cell line overexpressing PPARγ; cited from earlier work
[1] = test system: PPARγ-regulated genes in HepG2 cells; test: PPARγ target gene quantification in HepG2 cells (qPCR); assay type: cell-based, human; conditions: HepG2, 30 μM, 8 h; mean ± SEM, n = 4
Procedure: HepG2 cells were incubated with 1 (30 μM) or 0.1% DMSO as untreated control for 8 h, harvested, washed with cold phosphate-buffered saline (PBS) and then directly used for RNA extraction. 2 μg total RNA were extracted from HepG2 cells by the Total RNA Mini Kit (R6834-02, Omega Bio-Tek, Inc., Norcross, GA, USA). RNA was reverse-transcribed into cDNA using the High-Capacity cDNA Reverse Transcription Kit (4368814, Thermo Fischer Scientific, Inc.) according to the manufacturer’s protocol. PPARγ target gene expression was evaluated by quantitative real time PCR analysis with a StepOnePlus™ System (Life Technologies, Carlsbad, CA, USA) using Power SYBR Green (Life Technologies; 12.5 μL per well). Each sample was set up in duplicates and repeated in four independent experiments. The expression was quantified by the comparative ∆∆Ct method and glycerinaldehyde 3-phosphate dehydrogenase (GAPDH) served as reference gene. The following PCR primers were used: Adiponectin: 5′-TGGCTATGCTCACAGTCTCACATC-3′ (fwd) and 5′-CTCTGTGCCTCTGGTTCCACAA-3′ (rev); ANGPTL4: 5′-ATTCTTTCCAGCGGCTTCTG-3′ (fwd) and 5′-GAG GAC TGG AGA CGC GGA G-3′ (rev); CD36: 5′-GGC TGT GAC CGG AAC TGT G-3′ (fwd) and 5′-AGGTCTCCAACTGGCATTAGAA-3′ (rev); GAPDH: 5′-ATATGATTCCACCCATGGCA-3′ (fwd) and 5′-GATGATGACCCTTTTGGCTC-3′ (rev).
Results (expressed as mean ± SEM % relative mRNA expression to vehicle (0.1% DMSO); n = 4): Adiponectin: 1 (30 μM): 163 ± 41%; ANGPTL4: 1 (30 μM): 298 ± 49%; CD36: 1 (30 μM): 105 ± 16%.

O=C(O)CSc1nnc(Br)n1-c1ccc(C2CC2)c2ccccc12 [lesinurad]
lipid accumulation during differentiation (Oil Red O staining) (3T3-L1 adipocytes): lacked this adipogenic effect; also recorded: does not induce fat accumulation | EC50 (PPARγ LBD / SRC-1; HTRF, PPARγ LBD, 2 h at RT): 12 ± 2 µM | SRC-1 recruitment efficacy (PPARγ LBD / SRC-1; compared to 1 μM rosiglitazone): 91 ± 5% | cytotoxicity (3T3-L1 cells): no cytotoxicity | CYP3A4 induction (CYP3A4): CYP3A4 inducer | PPARγ activation reported by Miner et al. (PPARγ): does not activate PPARγ | ANGPTL4 relative mRNA expression to vehicle [1]: 298 ± 49% | Adiponectin relative mRNA expression to vehicle [1]: 163 ± 41% | CD36 relative mRNA expression to vehicle [1]: 105 ± 16%
